Assay results as given in ChEMBL document CHEMBL1201862, “PubChem BioAssay data set” (2004).
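Results reflect a 48-hour exposure of cells in 96-well plates to compound at five concentrations. Here, GI50 denotes the concentration required for 50% inhibition of growth.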 Activity calls are given as the source filed them. No stated cut-off is given here; in the data, active = GI50 up to about 1.1 µM and inactive = higher.

Legend:
Experiment in all cases: NCI-60 cell line screen, 48 h
SF-295 = test system: SF-295
KM12 = test system: KM12
HT-29 = test system: HT-29
NCI/ADR-RES = test system: NCI/ADR-RES
OVCAR-5 = test system: OVCAR-5
OVCAR-3 = test system: OVCAR-3
A498 = test system: A498
786-0 = test system: 786-0
T47D = test system: T47D
NCI-H226 = test system: NCI-H226
MCF7 = test system: MCF7
DU-145 = test system: DU-145
CAKI-1 = test system: CAKI-1
NCI-H23 = test system: NCI-H23
HOP-62 = test system: HOP-62
HL-60 = test system: HL-60
SNB-19 = test system: SNB-19
MDA-MB-231 = test system: MDA-MB-231
RPMI-8226 = test system: RPMI-8226
CCRF-CEM = test system: CCRF-CEM
MDA-N = test system: MDA-N
MDA-MB-435 = test system: MDA-MB-435
SNB-75 = test system: SNB-75
SF-539 = test system: SF-539
HOP-92 = test system: HOP-92
TK-10 = test system: TK-10
K562 = test system: K562
UO-31 = test system: UO-31
SK-MEL-5 = test system: SK-MEL-5
EKVX = test system: EKVX
RXF 393 = test system: RXF 393
ACHN = test system: ACHN
MOLT-4 = test system: MOLT-4
U-251 = test system: U-251
OVCAR-8 = test system: OVCAR-8
UACC-257 = test system: UACC-257
PC-3 = test system: PC-3
COLO 205 = test system: COLO 205
UACC-62 = test system: UACC-62
SK-MEL-28 = test system: SK-MEL-28
SN12C = test system: SN12C
SK-OV-3 = test system: SK-OV-3
HCT-116 = test system: HCT-116
HCT-15 = test system: HCT-15
M14 = test system: M14
A549 = test system: A549
SW-620 = test system: SW-620
LOX IMVI = test system: LOX IMVI
NCI-H460 = test system: NCI-H460
OVCAR-4 = test system: OVCAR-4
HCC 2998 = test system: HCC 2998
SF-268 = test system: SF-268
Hs-578T = test system: Hs-578T
IGROV-1 = test system: IGROV-1
Malme-3M = test system: Malme-3M
SR = test system: SR
SK-MEL-2 = test system: SK-MEL-2
NCI-H522 = test system: NCI-H522

Measured: GI50

Cc1nn(-c2ccccc2)c2nc3c(c(C)nn3-c3ccccc3)c(-c3ccc(C(F)(F)F)cc3)c12
inactive: SF-295 > 100 µM | KM12 > 100 µM | HT-29 52.8 µM | NCI/ADR-RES > 100 µM | OVCAR-5 > 100 µM | OVCAR-3 > 100 µM | A498 > 100 µM | 786-0 60.1 µM | T47D > 100 µM | NCI-H226 > 100 µM | MCF7 > 100 µM | DU-145 > 100 µM | CAKI-1 > 100 µM | NCI-H23 > 100 µM | HOP-62 > 100 µM | HL-60 > 100 µM | SNB-19 96.2 µM | MDA-MB-231 > 100 µM | RPMI-8226 > 100 µM | CCRF-CEM > 100 µM | MDA-N > 100 µM | MDA-MB-435 > 100 µM | SNB-75 39.4 µM | SF-539 72.3 µM | HOP-92 > 100 µM | TK-10 > 100 µM | K562 > 100 µM | UO-31 > 100 µM | SK-MEL-5 > 100 µM | EKVX > 100 µM | RXF 393 > 100 µM | ACHN > 100 µM | MOLT-4 > 100 µM | U-251 > 100 µM | OVCAR-8 > 100 µM | UACC-257 > 100 µM | PC-3 > 100 µM | COLO 205 > 100 µM | UACC-62 > 100 µM | SK-MEL-28 > 100 µM | SN12C > 100 µM | SK-OV-3 > 100 µM | HCT-116 > 100 µM | M14 > 100 µM | A549 > 100 µM | SW-620 > 100 µM | LOX IMVI > 100 µM | NCI-H460 > 100 µM | OVCAR-4 > 100 µM | HCC 2998 > 100 µM | SF-268 44.7 µM
> 100 µM: HCT-15

CCN(CC)CCC1CCCCN1CC(=O)N1c2ccccc2NC(=O)CC1C (stereo not drawn)
inactive: Hs-578T > 100 µM | SF-295 > 100 µM | KM12 > 100 µM | HT-29 > 100 µM | OVCAR-5 > 100 µM | IGROV-1 > 100 µM | OVCAR-3 > 100 µM | A498 > 100 µM | 786-0 > 100 µM | T47D > 100 µM | NCI-H226 > 100 µM | MCF7 > 100 µM | DU-145 > 100 µM | CAKI-1 > 100 µM | NCI-H23 > 100 µM | HOP-62 > 100 µM | HL-60 > 100 µM | SNB-19 > 100 µM | MDA-MB-231 > 100 µM | RPMI-8226 > 100 µM | CCRF-CEM > 100 µM | MDA-N > 100 µM | MDA-MB-435 > 100 µM | SF-539 > 100 µM | HOP-92 > 100 µM | TK-10 > 100 µM | K562 > 100 µM | UO-31 > 100 µM | SK-MEL-5 > 100 µM | EKVX > 100 µM | RXF 393 > 100 µM | ACHN > 100 µM | Malme-3M > 100 µM | MOLT-4 > 100 µM | U-251 > 100 µM | SR > 100 µM | OVCAR-8 > 100 µM | UACC-257 > 100 µM | PC-3 > 100 µM | SK-MEL-2 > 100 µM | COLO 205 > 100 µM | UACC-62 > 100 µM | SK-MEL-28 > 100 µM | SN12C > 100 µM | NCI-H522 > 100 µM | SK-OV-3 > 100 µM | HCT-116 > 100 µM | M14 > 100 µM | A549 > 100 µM | LOX IMVI > 100 µM | NCI-H460 > 100 µM | OVCAR-4 > 100 µM | HCC 2998 > 100 µM | SF-268 > 100 µM
active: SNB-75 0.0933 µM
> 100 µM: HCT-15
